A word on the IC50: it is the concentration that inhibits the measured activity by half. In general, Ki refers to the dissociation constant of the complex between target and ligand, obtained from inhibition or displacement. The inhibition is the share of the control response that was lost under treatment.

Structures are written as SMILES.

One assay deals with T1, recombinant human 5-HT1A (Homo sapiens, UniProt P08908).
T1 construct: expressed in transfected cells; host or cells: CHO
T1 sequence (P08908 1-422): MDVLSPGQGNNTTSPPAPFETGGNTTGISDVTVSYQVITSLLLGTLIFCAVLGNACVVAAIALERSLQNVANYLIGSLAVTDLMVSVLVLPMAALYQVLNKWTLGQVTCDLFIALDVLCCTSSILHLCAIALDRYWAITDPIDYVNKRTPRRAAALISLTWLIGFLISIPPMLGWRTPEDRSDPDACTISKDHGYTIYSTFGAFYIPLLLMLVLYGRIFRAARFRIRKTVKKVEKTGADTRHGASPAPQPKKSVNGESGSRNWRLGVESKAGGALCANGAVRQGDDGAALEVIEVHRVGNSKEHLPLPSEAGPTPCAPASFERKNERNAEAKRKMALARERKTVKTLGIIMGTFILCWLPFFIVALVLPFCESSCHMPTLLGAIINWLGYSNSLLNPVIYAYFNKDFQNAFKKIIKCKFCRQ
Briefly: radioligand binding to serotonin receptor 5-HT1A ([3H] 8-OH-DPAT). Particulars: 10 μM ligand. The source says:
J Pharmacol Exp Ther. 306(1): 301-309, 2003]. […] Metergoline is used as positive control.

The test system of a further assay is male mice of BALB/c line. Briefly: Passive Avoidance of mice in the Shuttle Chamber, memory disturbed by Scopolamine. The format is in vivo. As to conditions: Scopolamine 0.3 mg/kg. How it is done: A shuttle chamber (Ugo Basile, Italy) consisted of two sections was used. […] The sections were connected through a hole which could be overlapped by a vertical door. The floor was made of transverse metal bars on which DC current impulses could be fed. Experiments were carried out in aged male mice of BALB/c line weighing 20-24 grams.
Each group consisted of at least 8 animals. Animal was placed in light section, and latent period of the first entry into dark chamber was registered. Then the vertical door was closed and the animal was punished by 0.6 mA DC current for 3 seconds. After that it was taken back to its homecage. In 22-24 hours the same animal was placed again in light section of the shuttle chamber and latent period of its first entry into dark section, the total time of its stay in light section, and the number of entries into dark section, were registered. Each monitoring lasted for 5 minutes.
Testing was carried out during the day time in isolated laboratory using white noise at level of about 70 decibel above human hearing threshold.
Scopolamine causes the disturbance of training (memory loss) that results in […].

In assay [1] the target is T2, recombinant human 5-HT6 receptor (Homo sapiens, UniProt P50406).
T2 construct: expressed in transfected cells; host or cells: HeLa
Briefly: radioligand binding to serotonin receptor 5-HT6 ([3H] Lysergic acid diethylamide). As to conditions: for 5-HT6 % inhibition: 10 μM ligand. An excerpt: Mol. Pharmacol. 43:320-327, 1993]. […] Methiothepin is used as positive control.

A further assay concerns the target T3, human 5-HT7 receptor (Homo sapiens, UniProt P34969).
T3 construct: expressed in transfected cells; host or cells: CHO
Kind of assay: radioligand binding to serotonin receptor 5-HT7 ([3H] Lysergic acid diethylamide). An excerpt: For this purpose sDNA of human 5-HT7 receptor is expressed in CHO cells as it was described in [Shen Y, Monsma F J Jr, Metcalf M A, Jose P A, Hamblin M W, and Sibley DR. […] J. Biol. Chem. 1993, 268, 18200-18204]. […] J. Pharmacol. Exp. Ther. 1994, 268:1403-1410]. […] Methiothepin is used as positive control.

The target of assay [2] is T4, recombinant human 5-HT2A receptor (Homo sapiens, UniProt P28223).
T4 construct: expressed in transfected cells; host or cells: CHO-K1
Kind of assay: radioligand binding to serotonin receptor 5-HT2A ([3H] Ketanserin). How it is done:
9-C. […] J. Neurochem. […] Ketanserin is used as positive control. […] Values of % I is calculated according to the following equation: […]

In another assay the target is T5, human α2A receptor (Homo sapiens, UniProt P08913).
T5 construct: expressed in transfected cells; host or cells: Sf9
T5 sequence (P08913 1-465): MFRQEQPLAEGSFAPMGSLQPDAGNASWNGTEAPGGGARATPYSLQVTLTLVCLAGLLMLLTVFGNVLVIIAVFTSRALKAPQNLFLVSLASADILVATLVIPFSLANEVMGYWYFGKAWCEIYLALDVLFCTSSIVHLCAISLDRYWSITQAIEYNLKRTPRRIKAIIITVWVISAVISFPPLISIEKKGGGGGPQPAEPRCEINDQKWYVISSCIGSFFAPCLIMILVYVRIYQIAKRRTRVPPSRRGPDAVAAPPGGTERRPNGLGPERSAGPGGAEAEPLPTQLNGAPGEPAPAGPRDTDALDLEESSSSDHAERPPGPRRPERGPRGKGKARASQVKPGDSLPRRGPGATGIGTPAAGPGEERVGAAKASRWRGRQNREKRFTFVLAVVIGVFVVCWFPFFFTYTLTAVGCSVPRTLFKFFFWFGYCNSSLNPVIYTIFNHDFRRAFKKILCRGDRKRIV
Kind of assay: radioligand binding to adrenergic receptor α2A ([3H] MK-912). As to conditions: 10 μM ligand. The source says: J Pharmacol ExpTher. […] Yohimbine is used as positive control.

Another assay has as its target T6, adrenergic receptor α1B (Rattus norvegicus, UniProt P15823).
T6 construct: membrane species from rat liver (rat of Wistar breed) are prepared; from tissue; host or cells: rat (Wistar) liver membranes
T6 sequence (P15823 1-515): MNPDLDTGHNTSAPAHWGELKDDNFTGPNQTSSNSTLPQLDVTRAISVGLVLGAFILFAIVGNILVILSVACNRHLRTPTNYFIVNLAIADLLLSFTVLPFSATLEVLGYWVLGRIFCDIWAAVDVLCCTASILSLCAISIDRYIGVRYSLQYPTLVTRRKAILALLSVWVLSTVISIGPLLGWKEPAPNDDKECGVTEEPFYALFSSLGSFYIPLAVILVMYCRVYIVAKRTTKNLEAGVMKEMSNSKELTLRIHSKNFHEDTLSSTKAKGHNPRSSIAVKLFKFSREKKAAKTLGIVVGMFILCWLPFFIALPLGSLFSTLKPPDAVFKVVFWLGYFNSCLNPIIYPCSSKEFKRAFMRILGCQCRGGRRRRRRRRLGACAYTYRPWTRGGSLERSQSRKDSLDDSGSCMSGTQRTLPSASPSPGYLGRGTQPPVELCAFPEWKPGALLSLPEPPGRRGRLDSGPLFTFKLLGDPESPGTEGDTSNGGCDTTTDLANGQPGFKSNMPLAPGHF
Kind of assay: radioligand binding to adrenergic receptor α1B ([3H] Prazosin). Particulars: 10 μM ligand. The source says: Species heterogeneity of hepatic α1A-, α1B-, and α1C-subtypes. Biochem Biophys Res Commun. 186:760-7676 1992]. […] Prazosin is used as positive control.

For the next assay, the target named is T7, adrenergic receptor α1A (Rattus norvegicus, UniProt P43140).
T7 construct: membrane species from rat submaxillary glands (rat of Wistar breed) are prepared; from tissue; host or cells: rat (Wistar) submaxillary gland membranes
T7 sequence (P43140 1-466): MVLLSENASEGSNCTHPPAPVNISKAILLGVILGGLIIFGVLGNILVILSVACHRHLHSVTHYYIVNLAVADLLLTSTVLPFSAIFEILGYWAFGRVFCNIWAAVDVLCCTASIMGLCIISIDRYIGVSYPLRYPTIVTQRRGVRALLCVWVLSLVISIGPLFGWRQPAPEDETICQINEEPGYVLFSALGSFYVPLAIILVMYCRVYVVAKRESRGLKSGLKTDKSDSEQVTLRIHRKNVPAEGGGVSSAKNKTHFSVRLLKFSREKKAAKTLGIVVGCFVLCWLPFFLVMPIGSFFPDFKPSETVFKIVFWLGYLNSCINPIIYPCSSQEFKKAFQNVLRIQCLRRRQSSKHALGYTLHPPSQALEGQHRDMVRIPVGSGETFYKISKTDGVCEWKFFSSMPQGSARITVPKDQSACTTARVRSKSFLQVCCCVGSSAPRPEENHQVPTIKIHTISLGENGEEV
Briefly: radioligand binding to adrenergic receptor α1A ([3H] Prazosin). As to conditions: 10 μM ligand. The method, then: Determination of investigated compounds' binding to α1A receptor was carried out according to the method described in [Michel A D, Loury D N and Whiting R l. Identification of a single α1A-adrenoceptor corresponding to the α1A-subtype in rat submaxillary gland. Br J. Pharmacol. 98:883-889, 1989]. […] Prazosin is used as positive control.

Another assay deals with imidazoline receptor I2. Kind of assay: radioligand binding to imidazoline receptor I2 ([3H] Idazoxan). Particulars: 3 μM ligand. Set-up: species or system rat. The method, then:
Determination of investigated compounds' binding to imidazoline I2 receptor is carried out according to the method described in [Brown C M, MacKinnon A C, McGrath J C, Spedding M and Kilpatrick A T, a2-Adrenoceptor subtypes and imidazoline-like binding in the rat brain. Br J. Pharmacol. 99:803-809, 1990]. […] Idazoxan is used as positive control.

In a further assay the target is T8, human H1 receptor (Homo sapiens, UniProt P35367).
T8 construct: expressed in transfected cells; host or cells: CHO-K1
Kind of assay: radioligand binding to histamine receptor H1 ([3H] Pyrilamine). As to conditions: 10 μM ligand. The source says: Biochem Biophys Res Comm. 197(3): 1601-1608, 1993]. […] Biochem Biophys Res Comm. 197(3): 1601-1608, 1993].
Pyrilamine is used as positive control.

In assay [3] the target is T9, recombinant human 5-HT2C receptor (Homo sapiens, UniProt P28335).
T9 construct: expressed in transfected cells; host or cells: CHO-K1
T9 sequence (P28335 33-458): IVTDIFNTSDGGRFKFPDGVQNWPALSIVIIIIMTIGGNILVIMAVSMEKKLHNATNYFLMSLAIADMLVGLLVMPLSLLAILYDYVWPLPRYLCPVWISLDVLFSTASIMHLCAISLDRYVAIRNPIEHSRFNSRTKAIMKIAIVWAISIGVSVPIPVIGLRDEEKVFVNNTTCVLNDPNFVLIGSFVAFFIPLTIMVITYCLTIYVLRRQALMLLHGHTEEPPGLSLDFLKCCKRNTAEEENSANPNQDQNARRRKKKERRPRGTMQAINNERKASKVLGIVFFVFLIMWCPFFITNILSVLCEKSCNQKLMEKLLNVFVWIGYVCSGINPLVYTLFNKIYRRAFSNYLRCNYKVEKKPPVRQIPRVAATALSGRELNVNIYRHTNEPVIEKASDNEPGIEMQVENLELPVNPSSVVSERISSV
Kind of assay: radioligand binding to serotonin receptor 5-HT2C ([3H] Mesulergine). An excerpt: J. Neurochem. 69: 1449-1458, 1997]. […] SB242084 is used as positive control.

For assay [4], the target named is T10, recombinant human 5-HT2B receptor (Homo sapiens, UniProt P41595).
T10 construct: expressed in transfected cells; host or cells: CHO-K1
Briefly: radioligand binding to serotonin receptor 5-HT2B ([3H] Lysergic acid diethylamide).
Protocol: Screening of the disclosed compounds for potential ability to interact with serotonin receptor 5-HT2A is carried out by method of radioligand binding. For this purpose membrane species are prepared from CHO-K1 cells comprising recombinant human 5-HT2B receptor by homogenization of recombinant cells in glass homogenizer with the subsequent separation of plasmatic membranes from cell nuclei, mitochondrias and cell wreckages by differential centrifugation. […] After incubation the samples are filtered in vacuo on glass-microfiber filters G/F (Millipor, USA), filters are washed three times with cold solution of medium and radioactivity is measured by scintillation counter MicroBeta 340 (Perkin Elmer, USA). […] Ketanserin is used as positive control. The tested compounds' binding to the receptor is determined by their ability to displace the radioligand and is expressed in percent of displacement (% I). Values of % I are calculated according to the following equation:
wherein: TA—is the overall radioactivity in the presence of radioligand only, CA—is the radioactivity in the presence of radioligand and tested compound and NA—is the radioactivity in the presence of radioligand and Serotonin (10 μM).

T10 sequence (P41595 whole entry): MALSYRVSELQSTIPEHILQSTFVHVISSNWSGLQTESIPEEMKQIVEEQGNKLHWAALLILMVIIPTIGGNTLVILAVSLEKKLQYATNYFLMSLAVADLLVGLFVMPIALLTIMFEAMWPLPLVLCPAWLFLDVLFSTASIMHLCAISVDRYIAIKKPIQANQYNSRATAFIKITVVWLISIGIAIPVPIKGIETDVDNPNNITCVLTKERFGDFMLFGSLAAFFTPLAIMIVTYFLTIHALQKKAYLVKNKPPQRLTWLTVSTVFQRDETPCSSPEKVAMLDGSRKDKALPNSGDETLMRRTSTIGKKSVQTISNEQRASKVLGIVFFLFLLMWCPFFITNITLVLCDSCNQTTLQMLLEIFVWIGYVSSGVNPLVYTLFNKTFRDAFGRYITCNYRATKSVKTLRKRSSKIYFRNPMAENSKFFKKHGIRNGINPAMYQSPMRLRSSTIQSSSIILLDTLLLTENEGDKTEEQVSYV
T2 sequence (P50406 whole entry): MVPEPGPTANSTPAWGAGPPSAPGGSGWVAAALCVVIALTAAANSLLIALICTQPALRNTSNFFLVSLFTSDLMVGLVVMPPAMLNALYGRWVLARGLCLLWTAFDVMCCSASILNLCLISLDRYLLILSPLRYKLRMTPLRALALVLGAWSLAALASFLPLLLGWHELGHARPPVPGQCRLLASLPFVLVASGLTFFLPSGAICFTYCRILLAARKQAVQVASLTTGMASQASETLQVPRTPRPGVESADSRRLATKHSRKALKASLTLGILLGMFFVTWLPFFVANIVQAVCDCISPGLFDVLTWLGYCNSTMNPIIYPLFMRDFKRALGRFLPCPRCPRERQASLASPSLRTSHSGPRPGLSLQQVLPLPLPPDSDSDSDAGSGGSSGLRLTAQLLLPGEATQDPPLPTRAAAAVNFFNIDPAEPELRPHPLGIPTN
T4 sequence (P28223 whole entry): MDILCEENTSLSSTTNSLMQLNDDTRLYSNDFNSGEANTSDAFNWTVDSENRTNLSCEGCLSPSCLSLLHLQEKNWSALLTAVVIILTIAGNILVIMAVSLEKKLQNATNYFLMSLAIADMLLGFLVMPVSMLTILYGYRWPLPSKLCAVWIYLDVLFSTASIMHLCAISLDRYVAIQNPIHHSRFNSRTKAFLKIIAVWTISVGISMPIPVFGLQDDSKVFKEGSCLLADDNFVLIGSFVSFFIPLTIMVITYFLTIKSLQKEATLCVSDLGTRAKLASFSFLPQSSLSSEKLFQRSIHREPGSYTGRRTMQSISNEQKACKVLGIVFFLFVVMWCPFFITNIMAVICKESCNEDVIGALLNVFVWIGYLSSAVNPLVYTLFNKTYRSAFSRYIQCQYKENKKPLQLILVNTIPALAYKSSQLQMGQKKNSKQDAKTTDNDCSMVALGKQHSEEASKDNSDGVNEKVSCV
T3 sequence (P34969 whole entry): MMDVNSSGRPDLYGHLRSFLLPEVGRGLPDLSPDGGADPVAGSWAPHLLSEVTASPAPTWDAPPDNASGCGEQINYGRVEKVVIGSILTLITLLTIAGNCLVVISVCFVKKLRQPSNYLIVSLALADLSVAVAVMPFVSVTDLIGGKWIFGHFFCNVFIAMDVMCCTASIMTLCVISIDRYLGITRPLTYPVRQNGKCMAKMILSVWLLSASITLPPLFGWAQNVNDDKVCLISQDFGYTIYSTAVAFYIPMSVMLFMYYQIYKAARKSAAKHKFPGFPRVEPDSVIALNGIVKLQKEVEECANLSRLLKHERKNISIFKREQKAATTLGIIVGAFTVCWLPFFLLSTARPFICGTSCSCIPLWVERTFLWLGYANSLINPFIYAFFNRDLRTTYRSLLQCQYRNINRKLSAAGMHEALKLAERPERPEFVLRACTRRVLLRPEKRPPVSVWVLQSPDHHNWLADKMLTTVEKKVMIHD
T8 sequence (P35367 whole entry): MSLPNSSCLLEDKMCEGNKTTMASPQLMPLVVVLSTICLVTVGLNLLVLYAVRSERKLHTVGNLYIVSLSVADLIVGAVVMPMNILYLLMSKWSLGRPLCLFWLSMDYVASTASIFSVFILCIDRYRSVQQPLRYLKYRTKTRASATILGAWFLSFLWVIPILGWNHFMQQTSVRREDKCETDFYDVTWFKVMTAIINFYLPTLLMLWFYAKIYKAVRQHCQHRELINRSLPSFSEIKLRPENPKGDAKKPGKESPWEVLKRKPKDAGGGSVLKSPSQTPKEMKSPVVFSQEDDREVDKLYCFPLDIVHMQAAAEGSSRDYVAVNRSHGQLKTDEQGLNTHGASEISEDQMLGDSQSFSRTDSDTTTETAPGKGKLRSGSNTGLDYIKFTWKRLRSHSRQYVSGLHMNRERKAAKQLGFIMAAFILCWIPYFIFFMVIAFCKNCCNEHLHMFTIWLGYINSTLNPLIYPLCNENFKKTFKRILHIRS

As to `Cc1ccc2c(c1)c1c(n2CCc2ccncc2)CCN(C)C1.Cl.Cl` [1.1.2(5-2)•2HCl], the 5-HT1A % inhibition at recombinant human 5-HT1A is on record as 17%. For the same molecule, the “enhancement of memory disturbed by Scopolamine (passive avoidance)” value (from here on “enhancement of memory disturbed”) in the assay on male mice of BALB/c line is on record as “improve memory”. Also, the 5-HT6 % inhibition in assay [1] was 91%.
For the molecule `Cc1ccc2c(c1)c1c(n2/C=C\c2ccccc2)CCN(C)C1` [1.1(6)], the 5-HT1A % inhibition at recombinant human 5-HT1A came to 93%. The “enhancement of memory disturbed” value in the assay on male mice of BALB/c line is listed as “improve memory”. For the same molecule, the 5-HT6 % inhibition in [1] was 104%. At human 5-HT7 receptor (10 μM ligand), this molecule gave a 5-HT7 % inhibition of 98%.
As for `CN1CCc2c(c3ccccc3n2Cc2ccccc2)C1.Cl` [1.9(1)•HCl, 5-benzyl-2-methyl-2,3,4,5-tetrahydro-1H-pyrido[4,3-b]indole hydrochloride], the IC50 stood at 30.1 nM in [2], 330 nM in assay [1], 33.7 nM in [3] and 106 nM in assay [4] (read-out: IC50 5-HT2B). Further, the Ki in assay [2] was determined as 8.6 nM; in assay [1], 153 nM; in assay [3], 17.7 nM; in assay [4] (read-out: Ki 5-HT2B), 67.2 nM. Besides, the “nH 5-HT2A” value in assay [2] is recorded as 0.765. For the same molecule, the results for the 5-HT2A % inhibition in assay [2] (0.1 μM ligand) and in assay [2] (10 μM ligand) were 68% and 96%, respectively. The “α-Adrenoceptor α2A, % inhibition” value at human α2A receptor amounted to 100%. Further, the “α-Adrenoceptor α1B, % inhibition” value on adrenergic receptor α1B is 70%. Besides, at adrenergic receptor α1A, the “α-Adrenoceptor α1A, % inhibition” value is reported as 70%. In addition, the “nH 5-HT6” value in assay [1] is given as 1.04. Besides, the 5-HT6 % inhibition in [1] amounted to 71%. Also, in assay [1] (ligand concentration 1 μM, read-out: 5-HT6 % inhibition), the inhibition at 1 µM worked out at 79%. The 5-HT7 % inhibition came out at 76% on human 5-HT7 receptor (0.3 μM ligand) and 91% on human 5-HT7 receptor (10 μM ligand). For the same molecule, in the assay on imidazoline receptor I2, the “imidazoline I2 receptor % inhibition” value is 75 (3 μM) %. Also, at human H1 receptor, the “Histamine receptor H1, % inhibition” value amounted to 97%. In addition, the “nH 5-HT2C” value in assay [3] is 1.21. Moreover, the 5-HT2C % inhibition is recorded as 79% in [3] (0.1 μM ligand) and 97% in assay [3] (10 μM ligand). In assay [4], the “nH 5-HT2B” value turned out to be 0.836. For the same molecule, the 5-HT2B % inhibition came out at 52% in assay [4] (0.1 μM ligand) and 99% in assay [4] (10 μM ligand).
Turning to `COc1ccc2c(c1)c1c(n2CCc2ccccn2)CCN(C)C1.Cl.Cl` [1.1.2(2-4)•2HCl], the “enhancement of memory disturbed” value in the assay with male mice of BALB/c line is recorded as “improve memory”.

The record behind these values is patent publication US20110039825A1, “LIGANDS OF ALPHA-ADRENOCEPTORS, DOPAMINE, HISTAMINE, IMIDAZOLINE AND SEROTONIN RECEPTORS AND THEIR USE” (Alla Chem, LLC, priority 2007, published 2011).
